Experimental data from patent publication US20220185793A1, “COMPOUNDS FOR THE TREATMENT OF ONCOVIRUS INDUCED CANCER AND METHODS OF USE THEREOF” (Cellestia Biotech AG, priority 2019, published 2022).

Legend:
[1] = system: EBV positive human lymphoma HG-3 cells; test: Alamar blue proliferation assay in HG-3 cells; type: cell-based; conditions: 72 hours; for anti-proliferative effect on HG-3 cells (in words): Alamar blue, FIG. 1 and Table 1; for IC50: Homo sapiens, concentration range 0.01-10 μM, Alamar blue assay, read-out: Anti-proliferative IC50 values
Method: (§1) One million human EBV positive lymphoma cell lines HG3 and LCL070903 (Rosén et al., 2012) were cultured in RPMI1640 media supplemented with 10% FCS. […] Following treatment cells were harvested and washed with 1× PBS. Total RNA was extracted as described below.
(§2) Alamarblue® and PrestoBlue proliferation assays were performed to determine the growth kinetics of EBV inhibitor treated cells. Alamar blue® and PrestoBlue consists of a cell permeable substrate resazurin. In metabolically active and proliferating cells, resazurin is converted to resorufin due to an intrinsic reducing power of live cells and produces a red fluorescence. Therefore production of resorufin serves as an indicator of the viability of the cell population.
(§3) Proliferation assays were performed by seeding 5000 cells/well in a 96 well plate. […] Each concentration was tested in 4 replicates. To determine the growth kinetics, 10 μl of Alamar blue® or PrestoBlue (Invitrogen) was added to each well and incubated for 4 hours. Readout was taken using Tecan F500 (Tecan) multiplate reader or Varioskan LUX (ThermoFisher) multiplate reader.
In order to determine anti-cancer activity of compounds in oncoviral driven cells, an EBV infected human Chronic Lymphocytic Leukemia cell line HG-3 was used (Rosen et al., 2012). In brief, HG-3 cells were plated in a 96 well plate and treated with an increasing concentration of compounds.

BMI1 (EBV target gene) [2] = test: EBV target gene downregulation (qPCR) in HG-3 cells: BMI1; type: cell-based, human; conditions: 48 hours; for potency in downregulating EBV pathway (BMI1) compared with 6-(4-tert-butylphenoxy)pyridin-3-amine (in words): 10 μM, qRT-PCR, FIG. 4; for inhibition at 10 µM: Homo sapiens, mRNA by qPCR, Table 5
Method: EBV positive human B HG-3 cells were treated with 10 μM of the mentioned compounds for 48 hours. Following treatment, total RNA was extracted and mRNA expression analysed by qRT-PCR.
(§4) One million human EBV positive lymphoma cell lines HG3 and LCL070903 (Rosén et al., 2012) were cultured in RPMI1640 media supplemented with 10% FCS. For RNA expression analysis cells were treated with compounds at 10 μM concentration and for proliferation assay cells were treated at a concentration range of 0.01-100 μM. Following treatment cells were harvested and washed with 1× PBS. Total RNA was extracted as described below.
(§5) Total RNA was extracted from cells using TRIzol® extraction kit (Invitrogen). Briefly, 1×10^6 cells were washed with ice-cold 1× PBS and lysed in 1 ml of TRIzol® solution for 5 minutes at room temperature to dissociate nucleoprotein complexes. Lysed cells were then treated with 200 μl of chloroform and shaked vigorously for 15-30 seconds and incubated at room temperature for 2-3 minutes. The samples were centrifuged at 14000 rpm using Eppendorf table top centrifuge for 10 minutes at 4° C. Following centrifugation, upper aqueous phase was transferred to new eppendorf tubes. To precipitate total RNA 500 μl of […] was added to the separated aqueous phase and incubated at room temperature for 10 minutes. A RNA pellet was obtained by centrifuging the samples at 4° C. for 10 minutes. RNA pellet obtained was washed with 1 ml ice cold 75% ethanol and spun down at 14000 rpm at 4° C. RNA pellet was dried off of excess of ethanol and resuspended in 40 IA DPEC water.
(§6) Total RNA extracted from the cell was used to synthesize cDNA by reverse transcription reaction. Reverse transcription was performed according to one of the two following protocols.
(§7) In first protocol, SuperScript™ RT (Invitrogen) was used for reverse transcription reaction. RNA concentration was measured using NanoDrop®ND-1000 spectrophotometer (Witec AG) and 500 ng of total RNA was mixed with a 10 mM mix of dNTPs and 100 ng of random primers. The reaction mix was incubated at 65° C. for 5 minutes and quickly incubated on ice for 1 minute. Following incubation on ice, 5× first strand buffer and 0.1M DTT were added and mix was incubated for 2 minutes at 25° C. To start the reverse transcription reaction, 200U of SuperScrip™ II RT was added to the reaction mix and incubated at 42° C. for 50 minutes. The reaction was stopped by incubating the reaction mix at 75° C. for 15 minutes.
(§8) In second protocol, reverse transcription was performed using PrimeScript RT Master Mix (Takara). RNA concentration was measured using NanoDrop®ND-1000 spectrophotometer (Witec AG) and 1 μg of total RNA was mixed with 4 μL 5X PrimeScript RT Master Mix in a total reaction volume of 20 μL. The reaction mix was incubated at 37° C. for 15 minutes followed by heat inactivation at 85° C. for 5 seconds.
(§9) QRT-PCR was carried out using 7900 HT Fast Real-Time PCR system (Applied Biosystems) or QuantStudio 3 system (ThermoFisher). Briefly, 12.5 ng of template cDNA was used with a primer concentration of 0.5 μM each and lx SYBR Green dye in a final volume of 10 μL in a 96 well or 384 well plate format.
(§10) Upon infection of human cells, EBV is known to induce cancerous transformation of cells via upregulation of host as well as viral genes (e.g LMP1, EBNA2, BATF1, BMI1 and CD21). To determine the ability of compounds to downregulate EBV driven gene expression, HG-3 and LCL070903 cells were treated with selected compounds and percentage inhibition of EBV target genes was determined by quantitative PCR. As shown in Table 5 and Table 6, compounds down regulate EBV target genes such as BMI1 in HG-3 and LCL070903 cells, respectively (FIGS. 3 and 4).

BMI1 (EBV target gene) [3] = test: EBV target gene downregulation (qPCR) in LCL070903 cells: BMI1; type: cell-based, human; conditions: 48 hours; for potency in downregulating EBV pathway (BMI1) compared with 6-(4-tert-butylphenoxy)pyridin-3-amine (in words): 10 μM, qRT-PCR, FIG. 3; for inhibition at 10 µM: Homo sapiens, mRNA by qPCR, Table 6
Method: EBV positive human B LCL070903 cells were treated with 10 μM of the mentioned compounds for 48 hours. Following treatment, total RNA was extracted and mRNA expression analysed by qRT-PCR.
as §4, §5, §6, §7, §8, §9, §10

[4] = system: EBV positive human B HG-3 cells; test: PrestoBlue proliferation assay in HG-3 cells; type: cell-based; conditions: 72 hours; for IC50: Homo sapiens, concentration range 0.03-100 μM, PrestoBlue assay, read-out: Anti-proliferative IC50 values (μM) in HG-3 cells; for anti-proliferative effect on HG-3 cells (in words): PrestoBlue, FIG. 2 and Table 4
Method: as §1, §2, §3
In brief, HG-3 cells were plated in a 96 well plate and treated with an increasing concentration of compounds.

NOTCH target gene HES1 = NOTCH target gene HES1 downregulation in RPMI 8402 cells; type: cell-based, human; design: Percentage inhibition of NOTCH target gene HES1: concentration or dose not given beside the values; conditions: RPMI 8402 cells (NOTCH1 positive, EBV negative)
Method: as §5, §6, §9
(§11) To determine the ability of compounds to downregulate EBV driven gene expression, HG-3 cells were treated with selected compounds and percentage inhibition of EBV target genes was determined by quantitative PCR. […] To further determine the anti-oncoviral specificity of compounds, these compounds were tested for their ability to downregulate a NOTCH target gene HES1 in a NOTCH1 positive (EBV negative) human leukemic cell line RPMI8402.

EBNA2 [5] = test: EBV target gene downregulation (qPCR) in HG-3 cells: EBNA2; type: cell-based; conditions: Homo sapiens, mRNA by qPCR, Table 5
Method: as §4, §5, §6, §7, §8, §9, §11, §10

EBNA2 [6] = test: EBV target gene downregulation (qPCR) in LCL070903 cells: EBNA2; type: cell-based; conditions: Homo sapiens, mRNA by qPCR, Table 6
Method: as §4, §5, §6, §7, §8, §9, §10

SMILES | anti-proliferative effect on HG-3 cells (in words) [1] | IC50 [1] | potency in downregulating EBV pathway (BMI1) compared with 6-(4-tert-butylphenoxy)pyridin-3-amine (in words) (BMI1 (EBV target gene) [2]) | inhibition at 10 µM (BMI1 (EBV target gene) [2]) | potency in downregulating EBV pathway (BMI1) compared with 6-(4-tert-butylphenoxy)pyridin-3-amine (in words) (BMI1 (EBV target gene) [3]) | inhibition at 10 µM (BMI1 (EBV target gene) [3]) | IC50 [4] | other results
CC(C)(C)c1ccc(Oc2ccc(NCc3nnc(N)o3)cn2)cc1 [Example 9, 5-(((6-(4-(tert-Butyl)phenoxy)pyridin-3-yl)amino)methyl)-1,3,4-oxadiazol-2-amine] | demonstrate anti-proliferative effect | 6.3 µM |  |  |  |  |  | 
Fc1cc(NCc2cccnc2)ccc1Oc1ccc(-c2cccnc2)cc1 [Example 26, 3-Fluoro-4-(4-(pyridin-3-yl)phenoxy)-N-(pyridin-3-ylmethyl)aniline] |  |  | enhanced potency | 11% | enhanced potency | 53% |  | 
COC(c1ccc(NCc2cccnc2)cc1)c1ccc(-c2ccc(F)cc2)cc1 (stereo not drawn) [Example 31, 4-((4′-Fluoro-[1,1′-biphenyl]-4-yl)(methoxy)methyl)-N-(pyridin-3-ylmethyl)aniline] |  |  | enhanced potency | 24% | enhanced potency | 48% |  | 
CC(C)(C)c1ccc(Oc2ccc(NCc3nnco3)cn2)cc1 [Example 8, N-((1,3,4-Oxadiazol-2-yl)methyl)-6-(4-(tert-butyl)phenoxy)pyridin-3-amine] | demonstrate anti-proliferative effect | 7.9 µM |  |  |  |  |  | 
Fc1ccc(-c2ccc(Cc3ccc(NCc4cccnc4)cc3)cc2)cc1 [Example 32, 4-((4′-Fluoro-[1,1′-biphenyl]-4-yl)methyl)-N-(pyridin-3-ylmethyl)aniline] |  |  | enhanced potency | 13% | enhanced potency | 45% |  | 
CC(C)(C)c1ccc(Oc2ccc(NCC#N)cn2)cc1 [Example 6, 2-((6-(4-(tert-Butyl)phenoxy)pyridin-3-yl)amino)acetonitrile] | demonstrate anti-proliferative effect | 8 µM |  |  |  |  |  | 
CC(C)(C)c1ccc(Oc2ccc(NCc3nn[nH]n3)cn2)cc1 [Example 7, N-((2H-Tetrazol-5-yl)methyl)-6-(4-(tert-butyl)phenoxy)pyridin-3-amine] | demonstrate anti-proliferative effect | 7.1 µM |  |  |  |  |  | 
CC(C)(C)c1ccc(Oc2ccc(N)cn2)cc1 [6-(4-tert-Butylphenoxy)pyridin-3-amine, reference compound] |  | > 10 µM |  | < 0% |  | < 0% | > 10 µM | Percentage inhibition of NOTCH target gene HES1 (NOTCH target gene HES1): 80%; downregulation of NOTCH target gene HES1 (in words) (NOTCH target gene HES1): effectively downregulates HES1
Fc1ccc(-c2ccc(Oc3ccc(NCc4cccnc4)cn3)cc2)cc1 [Example 24, 6-((4′-Fluoro-[1,1′-biphenyl]-4-yl)oxy)-N-(pyridin-3-ylmethyl)pyridin-3-amine] |  |  | enhanced potency | 15% | enhanced potency | 61% |  | inhibition at 10 µM (EBNA2 [5]): 7%
c1ccc(-c2ccc(Oc3ccc(NCc4cccnc4)cn3)cc2)cc1 [Example 20, 6-([1,1r-Biphenyl]-4-yloxy)-N-(pyridin-3-ylmethyl)pyridin-3-amine] |  |  |  | 35% | enhanced potency | 44% | 0.3 µM | anti-proliferative effect on HG-3 cells (in words) [4]: demonstrate anti-proliferative effect; inhibition at 10 µM (EBNA2 [6]): 27%
Cc1cc(Oc2ccc(-c3ccccc3)cc2)ncc1NCc1cccnc1 [Example 22, 6-([1,1′-Biphenyl]-4-yloxy)-4-methyl-N-(pyridin-3-ylmethyl)pyridin-3-amine] |  |  | enhanced potency | 30% | enhanced potency | 18% | 1.5 µM | anti-proliferative effect on HG-3 cells (in words) [4]: demonstrate anti-proliferative effect
Fc1cc(NCc2cccnc2)ccc1Oc1ccc(-c2ccccn2)cc1 [Example 25, 3-Fluoro-4-(4-(pyridin-2-yl)phenoxy)-N-(pyridin-3-ylmethyl)aniline] |  |  | enhanced potency | 19% | enhanced potency | 46% | 6.7 µM | anti-proliferative effect on HG-3 cells (in words) [4]: demonstrate anti-proliferative effect; inhibition at 10 µM (EBNA2 [5]): 1%
CC(C)(C)c1ccc(Oc2ccc(NCc3cccnc3)cc2F)cc1 [Example 18, 4-(4-(tert-Butyl)phenoxy)-3-fluoro-N-(pyridin-3-ylmethyl)aniline] |  |  | enhanced potency | 10% | enhanced potency | 24% |  | 
